Here are results for five compounds from publication PMC12703741, “Light-Activated Metal-Dependent Protein Degradation: A Heterobifunctional Ruthenium(II) Photosensitizer Targeting New Delhi Metallo-β-lactamase 1” (Journal of the American Chemical Society, 2025).

Values joined by “and” are separate entries in the source; they are usually repeats but may differ in a detail not shown here. Equal values may be shown once. Read-outs that look alike come from different tables or passages of the source.

Data set [1] deals with E. coli empty. How it is done:
(§1) In parallel, a control set was incubated without compounds for 50 min, followed by incubation with 75 μM meropenem trihydrate for 10 min. Cells were then pelleted, washed, resuspended in water, lysed, and clarified before LC-MS analysis.
(§2) 1.12 LC-MS accumulation assay
(§3) 1.12.1 Bacterial Strains and Growth Conditions:
(§4) Accumulation assay was performed two E. coli K-12 MG1655 strains transfected with pSU18 vector containing NDM-1 expression or an empty vector control. Cell growth was performed in Luria-Bertani (LB) broth (NaCl 10g/L, K2HPO4 6.3 g/L, KH2PO4 1.8 g/L, sodium citrate […]
(§5) 1.12.2 Preparation of Accumulation Assay Samples for LC-MS Analysis:
(§6) Assay was adapted from the work of Geddes et al. and Widya et al.9–11 E. coli MG1655 pSU18 NDM-1 and pSU18 Empty were grown from single colonies at 37 °C with aeration, while shaking at 180 rpm for 18 hours. The overnight suspensions were subcultured (1:100) in fresh LB and incubated to yield an OD600 of 0.55-0.60. The were harvested and pelleted at 3500 × g for 15 minutes at 4 °C. The pellets were washed with Meuller -Hinton II (MHII) broth and pelleted again under the same conditions. The pellets were resuspended in a n adjusted volume of fresh MHII to achieve an OD 600 ≈ 10.0. Shielded from ambient light, cells were incubated with 320 μM of metal complex for 1 hour while shaking at 180 rpm. Separately, another set of cells was incubated under identical conditions without any added metal complex. Cells […]
(§7) incubated with metal complex were maintained incubating under the same conditions for an additional 10 minutes, while the second set of cells was incubated with 75 μM of meropenem trihydrate for 10 minutes. After treatment, 10 μL of each cell suspension was taken and dilution 1:10 PBSA for OD600 viability analysis. A 150 μL aliquot of each cell suspension was layered onto 150 μL of cold silicone oil mixture (1:9, v/v AR20:High temperature silicone oil) and centrifuged at 3500 × g for 1 hour at 4 °C. The aqu eous and oil supernatant were carefully aspirated to isolate the cell pellets, which were resuspended in 50 μL of water and transferred to a fresh microplate. For lysis, a 1:1 (v/v) mixture of acetonitrile and methanol was added to each sample, and the sam ples were freeze thawed at -80 °C for approximately 18 hours.
(§8) Thawed samples were clarified by two rounds of centrifugation at 3500 × g for 1 hour at 4 °C, […]
(§9) External calibration curves were prepared by mixing compound at increasing concentration with extracted cell lysate (prepared in parallel to analyte containing samples) in concentrations […]
(§10) nM were also prepared to assess quantitative accuracy. Samples were submitted to LCMS analysis as biological triplicate using a single calibration curve. […]
(§11) was spiked into each calibration and analyte sampl e as an internal standard.

Data set [2] deals with E. coli NDM-1. How it is done: as §1, §2, §3, §4, §5, §6, §7, §8, §9, §10, §11
For data set [3] the following is noted: organic photosensitizers; cited from earlier work.
Data set [4] addresses T1, NDM-1 (Klebsiella pneumoniae, UniProt C7C422). The note with it: 450 nm, 20 J cm^-2.
Data set [5] concerns HEK293T.
Data set [6] has as its target T1, NDM-1. The data set can be described thus: biochemical. The note with it: recombinant NDM-1, nitrocefin.
Data set [7] deals with HCT116.
Data set [8] has as its target T2, NDM-1 in E. coli NDM-1 (Klebsiella pneumoniae, UniProt C7C422). The note with it: E. coli NDM-1, 450 nm, 60 J cm^-2.
Procedure: (§12) shaking at 180 rpm for 18 hours. The overnight suspensions were subcultured (1:100) in fresh LB and incubated to yield an OD600 of 0.55-0.60. The were harvested and pelleted at 3500  g for 15 minutes at 4 °C. The pellets were washed with PBS and pelleted again under the same
(§13) conditions. The bacteria were then stored as pellets at 4 C until required for the assay and to
(§14) be used within 5 hours. To prepare the bacteria fo r the assay, a pellet was resuspended in an
(§15) adjusted volume of fresh PBS to achieve an OD600 ≈ 5.0 and then kept at 4 C for 1 hr before
(§16) being used. The bacteria were then diluted to OD600 ≈ 2.0 in fresh PBS and used immediately.
(§17) inhibitor control, and one row of Bacteria Buffer B (50 µL) which served as a no-bacteria
(§18) control (providing five rows in total). Bacteria stock (OD600 ≈ 2.0, 40 µL, final concentration
(§19) of bacteria in well = OD600 ≈ 0.8) was added to each well of the first four rows, the plate was
(§20) sealed, and the samples then pre-incubated for 60 min under either ‘dark’ or ‘light’ conditions
(§21) Under ‘dark’ conditions, the plate was left sealed in a
(§22) substrate in well = 100 µM) was conducted manually and then the plate immediately resealed
(§23) substrate had been completely consumed. Method conditions are as follows: cycle time = 100
Data set [9] is described as follows: Chromatographic LogD measurement. The following applies: reversed-phase HPLC, Eclipse Plus C18 column, pH 7.4.
Procedure: ChromLogD measurements were adapted from a previously reported procedure.3 The reversed
phase HPLC measurements were measured using an Agilent 1100 Series, equipped with an
Eclipse Plus C18 column 4.6 x 50 mm, using a gradient of 50 mM ammonium acetate/CH3CN
0 – 100% over 10 min. The mobile phase was adjusted to pH = 7.4 using concentrated sodium
The retention times (log k’) of seven commercially available compounds which cover the log
D range from -0.02 to 3.18 (theophylline, 5-phenyl-1H-tetrazole, benzimidazole, colchicine,
acetophenone, indole, propiophenone, butyrophenone, and benzophenone) were calculated
using the below equation, where tR is the retention time of the compound and t0 is the column
dead time, measured by injecting uracil (0.853 min).
The average retention times (tR) of two consecutive injections of sample were used to calculate
the log k’ values, which were then used to create the standard curve (Figure S1).
Data set [10] deals with HeLa.
Data set [11] has as its system hTERT RPE-1.
For data set [12], the system named is seven mammalian cell lines. The note with it: panel of seven mammalian cell lines including HepG2.
Data set [13] concerns E. coli NDM-1. The source holds these as a separate data set.
Procedure: based screening experiments were performed in biological triplicate, each replicate starting
from a new single colony inoculation. Statistical significance was determined using two-way
ANOVA followed by Sidak’s multiple comparison test, with a single pooled variance.
Concentration (MIC) assay
20% glycerol stocks of E. coli MG1655 pSU18 NDM-1 (E. coli NDM-1) and E. coli MG1655
pSU18 empty (E. coli empty) stored at -80 °C were used to streak nutrient agar plates. After
The MHBII culture growing both E. coli strains contained chloramphenicol
as an antibiotic resistance marker (2 µg/mL, equivalent to ¼ MICE. coli for chloramphenicol =
8 µg/mL). The resulting suspensions were each diluted 100 x (15 µL in 1.5 mL) in MHBII with
chloramphenicol (2 µg/mL), and the resultant suspensions were incubated to OD600 = 0.6-1.2
To generate the two-dimensional drug interaction matrix, four 96-well source plates were
prepared. In Source Plates A1-3, the three analytes were subjected to a two-fold serial dilution
across the rows (A to G), maintaining constant concentrations within each row and achieving
a vertical concentration gradient. In parallel, Source Plate B was prepared by diluting
meropenem in a two-fold series across the Columns (9 to 2), generating a horizontal
concentration gradient across the plate. Equal volumes (1 µL) from one of the source plates A
and source plate B were transferred into a 96-well assay plate to establish the checkerboard
layout with a 50X dilution into MHBII (50 μL total volume).
The prepared bacterial cells were diluted to OD600 = 0.01. Each prepared checkerboard plate
was then inoculated with 50 μL per well of bacterial culture in MHBII with ½ MIC of
chloramphenicol (100 μL total volume per well , final OD600 = 0.005). Control wells were
included to account for drug-free growth, sterility, and single-agent gradient exposures. Dark
For the light condition, the
OD600 was measured on a BMG Labtech CLARIOstar plate reader. The MIC is the first value
at which no growth is seen. All E. coli NDM-1 data were averaged from 3 biological replicates,
The subject of data set [14] is RAW264.7. The note with it: RAW.
The subject of data set [15] is HepG2.
The target of data set [16] is T1, NDM-1. The following applies: in words.
Procedure: (§24) 1.4.1 Differential Scanning Fluorimetry (DSF)
(§25) DSF was performed using the Applied Biosystems QuantStudio 5 thermal cycler (Thermo
(§26) Fisher Scientific). Results were analysed and Tm determined with the Applied Biosystems
(§27) Protein Thermal Shift Software v1.4 and Tm values determined by the software. DSF was
(§28) conducted in sealed MicroAmp Optical 384-Well Reaction Plates (Thermo Fisher Scientific).
(§29) at a temperature ramp rate of 0.03 °C/s. For compound-protein interaction studies, a final
(§30) containing 5X SYPRO Orange (Thermo Fisher Scientific), 50 mM HEPES and 5%(v/v)
(§31) DMSO-d6. The final reaction volume was 20 µL per well. All DMSO compound stocks used
(§32) for DSF experiments were freshly prepared from solid stocks. All DSF measurements were
(§33) carried out in triplicate and the Tm reported is the mean value and the error is the standard
(§34) deviation. For all compounds tested, a no protein control run was included to see potential
(§35) changes in fluorescence resulting from a compound-dye interaction.
Data set [17] has as its target HDAC1 (Homo sapiens, UniProt Q13547). As to the kind of experiment: HDAC1 deacetylation assay (H3K9Ac, mass spectrometry). The note with it: 100 µM compound, 3 hours, 37°C.
Procedure: 1.7.1 HDAC1 Assay conditions:
The results of the assay were analysed using HRMS.
HDAC1 was included (-HDAC1).
The target of data set [18] is T2, NDM-1 in E. coli NDM-1. The data set can be described thus: cell-based. The following applies: E. coli NDM-1, nitrocefin.
Procedure: as §12, §13, §14, §15, §16, §17, §18, §19, §20, §21, §22, §23
Data set [19] has as its target T1, NDM-1. The data set can be described thus: biochemical.
Procedure: as §24, §25, §26, §27, §28, §29, §30, §31, §32, §33, §34, §35
For data set [20], the system named is HaCaT.
Where [21] appears, read: read-out: Change in melting temperature (ΔT) of NDM-1.

Broadly, the IC50 is the concentration needed to halve the response being measured. One may read the chromatographic logD as a lipophilicity value derived from retention on a column. A word on the Kd: it is a measure of binding affinity in units of concentration. Lower therefore signals a tighter complex.

T1 sequence (C7C422 31-270 limits assumed): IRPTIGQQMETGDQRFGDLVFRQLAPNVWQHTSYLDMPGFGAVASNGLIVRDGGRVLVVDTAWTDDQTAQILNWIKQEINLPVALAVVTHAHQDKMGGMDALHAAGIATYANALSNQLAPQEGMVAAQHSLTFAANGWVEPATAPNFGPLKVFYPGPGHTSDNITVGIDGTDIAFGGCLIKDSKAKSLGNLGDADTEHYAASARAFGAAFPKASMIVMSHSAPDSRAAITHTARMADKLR
T2 sequence (C7C422 29-270 limits assumed): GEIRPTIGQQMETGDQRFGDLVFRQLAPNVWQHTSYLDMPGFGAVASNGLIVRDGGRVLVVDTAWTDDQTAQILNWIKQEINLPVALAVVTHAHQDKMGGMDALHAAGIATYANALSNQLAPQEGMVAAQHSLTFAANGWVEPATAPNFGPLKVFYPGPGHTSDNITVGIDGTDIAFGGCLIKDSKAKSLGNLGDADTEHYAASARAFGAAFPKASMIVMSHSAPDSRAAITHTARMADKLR
Sequence of HDAC1 (Q13547 whole entry, species assumed): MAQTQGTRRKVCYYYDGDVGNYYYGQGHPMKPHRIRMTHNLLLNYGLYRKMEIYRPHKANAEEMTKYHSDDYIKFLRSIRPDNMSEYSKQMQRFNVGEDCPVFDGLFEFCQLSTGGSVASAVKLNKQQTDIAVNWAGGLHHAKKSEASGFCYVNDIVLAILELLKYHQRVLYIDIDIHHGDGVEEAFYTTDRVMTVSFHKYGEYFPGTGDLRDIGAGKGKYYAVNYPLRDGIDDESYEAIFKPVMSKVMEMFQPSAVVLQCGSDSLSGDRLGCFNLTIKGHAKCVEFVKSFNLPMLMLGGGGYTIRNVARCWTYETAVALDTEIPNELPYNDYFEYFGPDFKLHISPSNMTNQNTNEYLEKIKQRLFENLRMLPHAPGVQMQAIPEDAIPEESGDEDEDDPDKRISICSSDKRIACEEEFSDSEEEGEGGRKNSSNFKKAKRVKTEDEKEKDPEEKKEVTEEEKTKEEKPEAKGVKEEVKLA

On to `C[C@@H](O)[C@H]1C(=O)N2C(C(=O)O)=C(S[C@@H]3CN[C@H](C(=O)N(C)C)C3)[C@H](C)[C@H]12` [Meropenem, meropenem], for which the Accumulation in [1] (75 μM, 10 min) is given as 150 nM/OD600; in data set [1] (75 μM, 10 min, listed as meropenem trihydrate), 0 nM/OD600; in data set [2] (75 μM, 10 min) it was “not detectable”.

As for `C=CC1=C(C)c2cc3[nH]c(cc4nc(cc5[nH]c(cc1n2)c(C)c5CCC(=O)O)C(CCC(=O)O)=C4C)c(C)c3C=C` [protoporphyrin IX], the Excited state lifetime in [3] is listed as 13 ns.

For porfimer sodium, the Excited state lifetime in data set [3] is listed as 14 ns.

As for `Cl.Cl.Nc1cccc(-c2cc(C(=O)O)nc(C(=O)O)c2)c1` [N1, 4-(3-amino-phenyl) dipicolinic acid], the “Fold improvement in NDM-1 inhibition, light vs dark” value in data set [4] is given as “no enhancement of potency”. Further, the LD50 in [5] (24 h) is given as over 50 µM; in data set [5] (48 h), over 50 µM; in data set [7] (HCT116, 24 h), over 50 µM; in data set [7] (HCT116, 48 h) it was over 50 µM; in [10] (24 h), over 50 µM; in data set [10] (48 h) it was over 50 µM. The LD50 is reported as over 50 µM in data set [11] (RPE1, 24 h); over 50 µM in data set [11] (RPE1, 48 h); over 50 µM in data set [14] (24 h); over 50 µM in data set [14] (48 h); over 50 µM in data set [15] (HepG2, 24 h); over 50 µM in [15] (HepG2, 48 h). Moreover, the LD50 in data set [20] (24 h) and in data set [20] (48 h) was over 50 µM each time. The IC50 was 3.2 ± 0.08 µM in data set [6] (IC50(dark), dark); 3.1 µM in [6] (IC50(light), light 450 nm, 20 J cm^-2); 13.2 µM and 13 µM in data set [18] (IC50(dark), dark); 11.1 µM in data set [18] (IC50(light), light 450 nm, 60 J cm^-2). For the same compound, the “Fold improvement in potency, light vs dark” value in data set [8] was “no change in potency”. Also, the chromatographic logD in data set [9] is -1.32. Moreover, the “Cytotoxicity (no cytotoxicity up to)” value in data set [12] was over 50 µM. Moreover, the “Fold change in Meropenem MIC” value in data set [13] (compound 5 μM, dark) was 0 fold; in data set [13] (compound 5 μM, light 450 nm, 60 J cm^-2) it was 0.66 fold; in data set [13] (compound 10 μM, dark), 0 fold; in [13] (compound 10 μM, light 450 nm, 60 J cm^-2), 0.66 fold; in data set [13] (compound 20 μM, dark) it was 0 fold; in data set [13] (compound 20 μM, light 450 nm, 60 J cm^-2), 1.3 fold. The “Fold change in Meropenem MIC” value was determined as 0.66 fold in data set [13] (compound 40 μM, dark); 2.0 fold in data set [13] (compound 40 μM, light 450 nm, 60 J cm^-2); 2.6 fold in data set [13] (compound 80 μM, dark); 6.6 fold in data set [13] (compound 80 μM, light 450 nm, 60 J cm^-2); 35 fold in data set [13] (compound 160 μM, dark); 43 fold in data set [13] (compound 160 μM, light 450 nm, 60 J cm^-2). In addition, the Accumulation in data set [1] (320 μM, 1 h) is given as 609 nM/OD600; in data set [2] (320 μM, 1 h), 731 nM/OD600. In addition, the “Effect on melting temperature of NDM-1” value in [16] is “destabilize the protein in a dose-dependent manner”. The “Inhibition of HDAC1” value in data set [17] is given as “do not inhibit”. Also, the Kd in data set [19] was determined as 35 µM. Moreover, in data set [19] (setting [21]), the ΔTm at 4 µM was -0.6 °C. Moreover, in [19] (setting [21]), the ΔTm at 16 µM was -3.4 °C. Also, in data set [19] (setting [21]), the ΔTm at 63 µM is -8.8 °C.

Consider `CN[C@@H]1C[C@H]2O[C@@](C)([C@@H]1OC)n1c3ccccc3c3c4c(c5c6ccccc6n2c5c31)C(=O)NC4` [Staurosporine], for which the LD50 in data set [5] (24 h) is reported as 0.07 µM; in data set [5] (48 h), 0.01 µM; in data set [7] (HCT116, 24 h) it was 0.08 µM; in data set [7] (HCT116, 48 h), 0.02 µM; in data set [10] (24 h), 0.05 µM; in data set [10] (48 h), 0.02 µM. The LD50 in data set [11] (RPE1, 24 h) came out at 0.01 µM; in [11] (RPE1, 48 h), 0.01 µM; in [14] (24 h), 0.03 µM; in data set [14] (48 h), 0.01 µM; in data set [15] (HepG2, 24 h), 0.3 µM; in [15] (HepG2, 48 h) it was 0.09 µM. The LD50 came out at 0.05 µM in data set [20] (24 h) and 0.01 µM in data set [20] (48 h).
